Experimental data published in US20150104430A1, “Methods and Compositions for Generating Pancreatic Progenitors and Functional Beta Cells from hPSCs” (University Health Network, priority 2012, published 2015).

B1: Noggin (protein, UniProt Q13253 28-232, looked up)
Noggin: QHYLHIRPAPSDNLPLVDLIEHPDPIFDPKEKDLNETLLRSLLGGHYDPGFMATSPPEDRPGGGGGAAGGAEDLAELDQLLRQRPSGAMPSEIKGLEFSEGLAQGKKQRLSKKLRRKLQMWLWSQTFCPVLYAWNDLGSRFWPRYVKVGSCFSKRSCSVPEGMVCKPSKSVHLTVLRWRCQRRGGQRCGWIPIQYPIISECKCSC
notes: bone morphogenetic protein antagonist having Gene ID: 9241

What was measured:
[1] = system: human ES cell line: H9 (WA09); assay: Percentage of NKX6-1+ cells after stage 4 treatment of H9 (WA09)-derived endodermal cells; format: cell-based; conditions: day 13 of differentiation, treatment at stage 4
[2] = system: human fetal pancreatic cells; conditions: Otonkoski et al., 1993; cited from earlier work

Molecule	Percentage of NKX6-1+ cells [1] [%]	induction of endocrine differentiation [2]
NC(=O)c1cccnc1 [Nicotinamide (NA), Nicotinamide]	14.0	potent inducer of endocrine differentiation
EGF [EGF (E)]	18.5	
B1	21.7	
